Values of other authors as cited in patent US7388019B2, “3-amino-4-phenylbutanoic acid derivatives as dipeptidyl peptidase inhibitors for the treatment or prevention of diabetes” (Merck & Co., Inc., priority 2003, dated 2008).
Each block holds one molecule with its values, some of them ahead of it.

Columns and labels:
DP-IV = biological target: T1, DP-IV (Homo sapiens, UniProt P27487); conditions: plasma
T1 construct: GRF is rapidly degraded in plasma to GRF[3-44]; from tissue

[1] = mouse, cyclophosphamide-induced neutropenia
[2] = rats

T1 sequence (P27487 39-766 limits assumed): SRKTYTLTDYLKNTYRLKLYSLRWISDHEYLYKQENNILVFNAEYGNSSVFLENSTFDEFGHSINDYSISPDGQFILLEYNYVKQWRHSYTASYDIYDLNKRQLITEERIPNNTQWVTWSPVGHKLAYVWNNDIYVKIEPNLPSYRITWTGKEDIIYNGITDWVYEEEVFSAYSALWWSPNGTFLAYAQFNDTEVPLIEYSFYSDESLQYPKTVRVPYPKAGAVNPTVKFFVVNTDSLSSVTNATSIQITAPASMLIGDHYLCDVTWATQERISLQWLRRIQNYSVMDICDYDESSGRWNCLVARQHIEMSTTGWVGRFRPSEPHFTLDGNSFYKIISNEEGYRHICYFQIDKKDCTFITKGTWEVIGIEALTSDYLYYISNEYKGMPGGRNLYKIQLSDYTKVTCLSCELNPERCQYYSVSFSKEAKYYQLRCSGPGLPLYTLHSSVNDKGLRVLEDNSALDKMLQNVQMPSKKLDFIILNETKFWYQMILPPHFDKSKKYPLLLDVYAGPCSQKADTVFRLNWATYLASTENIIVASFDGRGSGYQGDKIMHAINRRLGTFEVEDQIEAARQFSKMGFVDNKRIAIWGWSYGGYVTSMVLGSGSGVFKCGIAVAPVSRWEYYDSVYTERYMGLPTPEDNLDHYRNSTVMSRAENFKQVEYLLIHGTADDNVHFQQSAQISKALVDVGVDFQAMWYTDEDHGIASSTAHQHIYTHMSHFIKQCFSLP

degradation of GRF to GRF[3-44] (DP-IV): prevented
Molecule: diprotin A

Molecule: CC(C)[C@H](N)C(=O)N1CCC[C@H]1B(O)O [Val-Boro-Pro]
hematopoiesis [1]: stimulated hematopoiesis

Molecule: CC(C)N1CCC(c2ccccc2)(c2ccccc2)CC1 [Prodipine, Pro-Pro-diphenyl-phosphonate]
cardiac allograft survival [2]: double cardiac allograft survival in rats from day 7 to day 14
